The term IC50 denotes the concentration needed to halve the response being measured.

The subject of data set [1] is CYP3A4. The experiment in a line: Human CYP 3A4 induction assay (mRNA, cryopreserved human hepatocytes). The class given is in vitro ADME. The method, then: Human CYP 3A4 Induction Assay
Cryopreserved human hepatocytes were seeded in 96-well collagen coated plates at 70,000 cells per well in hepatocyte plating media (HPM, final concentrations: 1× Dulbecco's Modified Eagle's Medium, 0.1 μM dexamethasone, 10% fetal bovine serum, 1× ITS, 1×PSG) followed by incubation at 37° C. under 5% CO2 and 90% relative humidity for 2 days to allow hepatocytes to form a confluent layer. On Day 3, hepatocytes were treated with either test compound or rifampin (20 μM, positive control for CYP3A induction) prepared in hepatocyte incubation media ((HIM, final concentrations: 1× William's Medium E, 0.1 μM dexamethasone, 1×ITS, 1×PSG). Treatment was performed for 72 hours with either 2 concentrations (2 μM or 10 μM) or a range of concentrations (0.001 μM to 100 μM) of the test compound to obtain full dose-response curve. Fresh media containing the relevant concentrations of the test compound was replaced every day until the samples were processed. After 72 hours of incubation, samples were processed for mRNA analysis using bDNA technology using manufacturer's instructions (Affymetrix, Fremont, Calif.). Cell viability was tested at the end of the experiment using MTT assay kit (Roche Diagnostics, Basel, Switzerland). Data was analyzed and presented as percent of control (POC) and Emax and EC50 obtained when appropriate according to guidance from Center for Drug Evaluation and Research (CDER), 2006, Guidance for Industry, Drug Interaction Studies—Study Design, Data Analysis, and Implications for Dosing and Labeling.
Cryopreserved human hepatocytes were seeded in 96-well collagen coated plates at 70,000 cells per well in hepatocyte plating media (HPM, final concentrations: 1× Dulbecco's Modified Eagle's Medium, 0.1 μM dexamethasone, 10% fetal bovine serum, 1×ITS, 1×PSG) followed by incubation at 37° C. under 5% CO2 and 90% relative humidity for 2 days to allow hepatocytes to form a confluent layer. On Day 3, hepatocytes were treated with either test compound or rifampin (20 μM, positive control for CYP3A induction) prepared in hepatocyte incubation media ((HIM, final concentrations: 1× William's Medium E, 0.1 μM dexamethasone, 1×ITS, 1×PSG). Treatment was performed for 72 hours with either 2 concentrations (2 μM or 10 μM) or a range of concentrations (0.001 μM to 100 μM) of the test compound to obtain full dose-response curve. Fresh media containing the relevant concentrations of the test compound was replaced every day until the samples were processed. After 72 hours of incubation, samples were processed for mRNA analysis using bDNA technology using manufacturer's instructions (Affymetrix, Fremont, Calif.). Cell viability was tested at the end of the experiment using MTT assay kit (Roche Diagnostics, Basel, Switzerland). Data was analyzed and presented as percent of control (POC) and Emax and EC50 obtained when appropriate, as described in Halladay, J. et al, 2012, An “all-inclusive” 96-well cytochrome P450 induction method: Measuring enzyme activity, mRNA levels, protein levels, and cytotoxicity from one well using cryopreserved human hepatocytes, Pharmacological and Toxicological Methods, 66:270-275.
The cytochrome P450 (CYP) is a well-known superfamily of enzymes that are responsible for the oxidative and reductive metabolic transformation of medications used in clinical practice. In addition, the CYP enzymes are commonly associated with causing many clinically relevant drug-drug interactions. Of the CYP enzymes, CYP3A4 is not only the most prevalent CYP enzyme in the liver and intestine, but is responsible for metabolism and elimination of approximately 50% of marketed drugs. In addition, CYP3A4 activity can be induced (or increased) or inhibited (decreased) in response to administration of certain drugs, thereby affecting concentrations of their own or certain concomitant drugs present in the body. […]

Data set [2] has as its target T1, Human NaV1.7 (Homo sapiens, UniProt Q15858).
T1 construct: expressed in transfected cells; host or cells: Spiking HEK cells (without Kir2.1 transfection)
Put plainly: Ionworks Barracuda (IWB) automated patch clamp assay. The class given is cell-based. The note with it: human NaV1.7 currents in HEK cells, population patch clamp, state- and use-dependent voltage protocol; read-out: hNaV1.7 IWB-U IC50. On the procedure:
Ionworks Barracuda (IWB) Automated Patch Clamp Assay (Same Protocol for Both Hu Man and Mouse)
Human NaV1.7 currents were recorded in population patch-clamp mode with the IWB automated electrophysiology system (Molecular Devices, LLC, Sunnyvale, Calif.). Spiking HEK cells (without Kir2.1 transfection) were cultured and prepared for recordings as previously described for IonWorks Quattro testing^1. The external solution consisted of the following (in mM): NaCl 140, KCl 5, CaCl2 2, MgCl2 1, HEPES 10, and glucose 11, pH 7.4, with N-methyl-D-glucamine at 320 mOsmol. […] From a holding potential of −110 mV, currents were elicited by a train of 26 depolarizations of 150 ms duration to −20 mV at a frequency of 5 Hz. Cells were then clamped to −20 mV for a period of 4 minutes in the presence of a single concentration of test compound. Following this compound incubation period, cells were clamped to −110 mV for three seconds to recover unbound channels and put through the same 26 pulse voltage protocol as above. Peak inward current during the 26th pulse to −20 mV in the presence of compound was divided by the peak inward current evoked by the 26th pulse to −20 mV in the absence of compound to determine percent inhibition. Concentration-response curves of percent inhibition as a function of concentration were generated to calculate IC50 values as described in Kornecook, T. J.; Yin, R.; Altmann, S.; et al. Pharmacologic Characterization of AMG8379, a Potent and Selective Small Molecule Sulfonamide Antagonist of the Voltage-Gated Sodium Channel NaV1. 7.
The potency of the compounds of the present invention were evaluated on human NaV1.7 channels using the above described IonWorks Barracuda automated electrophysiology platform that evaluates the ability of compounds to block sodium conductance through NaV1.7 channels. A voltage-protocol that prosecutes both state-dependent as well as use-dependent inhibition was used as these modes of action are thought to be more relevant for the native state of NaV1.7 channels in pain sensing neurons in vivo.
On the technique in general: The patch-clamp technique gives a direct electrical read-out from membranes.

Where [3] appears, read: human hepatocytes, 10 uM test compound, 72 hours, mRNA, percent of control (rifampin positive control).

T1 sequence (Q15858 whole entry): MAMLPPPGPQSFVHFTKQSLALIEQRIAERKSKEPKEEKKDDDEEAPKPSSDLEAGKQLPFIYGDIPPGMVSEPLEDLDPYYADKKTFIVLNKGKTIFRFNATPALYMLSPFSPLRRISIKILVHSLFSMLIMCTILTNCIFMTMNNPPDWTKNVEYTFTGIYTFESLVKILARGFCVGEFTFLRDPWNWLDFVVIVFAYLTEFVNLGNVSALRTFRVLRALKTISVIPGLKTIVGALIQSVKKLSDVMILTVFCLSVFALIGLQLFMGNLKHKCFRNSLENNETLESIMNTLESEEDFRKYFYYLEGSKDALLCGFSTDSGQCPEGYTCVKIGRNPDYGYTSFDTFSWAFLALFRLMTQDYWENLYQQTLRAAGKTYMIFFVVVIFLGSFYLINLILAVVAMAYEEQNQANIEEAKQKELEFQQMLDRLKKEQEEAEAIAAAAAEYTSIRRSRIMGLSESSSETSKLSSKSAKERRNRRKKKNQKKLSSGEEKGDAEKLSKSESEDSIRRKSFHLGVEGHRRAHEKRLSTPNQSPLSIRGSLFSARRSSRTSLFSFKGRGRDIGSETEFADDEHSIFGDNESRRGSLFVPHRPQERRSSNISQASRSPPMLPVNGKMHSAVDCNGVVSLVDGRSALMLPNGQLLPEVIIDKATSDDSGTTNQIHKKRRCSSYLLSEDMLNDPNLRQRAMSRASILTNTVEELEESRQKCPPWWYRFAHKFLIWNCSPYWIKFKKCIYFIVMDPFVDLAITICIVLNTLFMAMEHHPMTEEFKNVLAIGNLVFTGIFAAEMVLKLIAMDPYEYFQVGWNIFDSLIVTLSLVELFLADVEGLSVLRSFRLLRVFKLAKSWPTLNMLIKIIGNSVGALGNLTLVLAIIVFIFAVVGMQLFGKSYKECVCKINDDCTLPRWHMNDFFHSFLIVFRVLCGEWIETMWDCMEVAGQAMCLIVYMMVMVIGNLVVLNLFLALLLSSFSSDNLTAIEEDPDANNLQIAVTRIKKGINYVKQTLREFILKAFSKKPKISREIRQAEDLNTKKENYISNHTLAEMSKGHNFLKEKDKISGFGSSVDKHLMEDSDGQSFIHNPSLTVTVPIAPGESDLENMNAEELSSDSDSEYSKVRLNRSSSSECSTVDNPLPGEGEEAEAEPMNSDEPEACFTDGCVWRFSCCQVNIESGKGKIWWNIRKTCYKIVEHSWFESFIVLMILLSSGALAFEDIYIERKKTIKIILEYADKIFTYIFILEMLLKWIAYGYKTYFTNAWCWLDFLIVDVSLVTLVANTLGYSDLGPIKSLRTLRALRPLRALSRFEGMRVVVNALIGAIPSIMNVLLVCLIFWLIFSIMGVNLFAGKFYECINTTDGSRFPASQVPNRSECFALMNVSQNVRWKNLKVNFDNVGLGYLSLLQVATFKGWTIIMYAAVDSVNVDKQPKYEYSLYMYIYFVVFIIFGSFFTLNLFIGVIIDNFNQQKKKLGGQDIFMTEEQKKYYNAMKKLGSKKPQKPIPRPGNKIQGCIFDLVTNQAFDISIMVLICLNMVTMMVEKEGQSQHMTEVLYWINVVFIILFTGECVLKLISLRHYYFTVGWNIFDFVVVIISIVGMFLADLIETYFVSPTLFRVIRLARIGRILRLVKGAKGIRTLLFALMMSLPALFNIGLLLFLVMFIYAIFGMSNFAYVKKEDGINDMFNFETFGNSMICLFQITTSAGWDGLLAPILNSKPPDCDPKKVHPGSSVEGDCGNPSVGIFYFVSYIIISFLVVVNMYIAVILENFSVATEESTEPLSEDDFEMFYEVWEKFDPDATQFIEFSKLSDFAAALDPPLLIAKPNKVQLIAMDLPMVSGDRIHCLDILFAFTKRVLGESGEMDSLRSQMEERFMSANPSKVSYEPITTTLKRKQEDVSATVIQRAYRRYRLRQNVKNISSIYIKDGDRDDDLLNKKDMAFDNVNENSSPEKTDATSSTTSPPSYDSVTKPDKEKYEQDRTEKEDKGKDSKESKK

For the compound `COc1cc([C@@H]2C[C@H]2C(F)(F)F)c(Cl)cc1-n1c(=O)ccc2cc(S(=O)(=O)Nc3cccnn3)ccc21` (atropisomer, axis not shown; (P)) [Example 14, (P)-1-(5-chloro-2-methoxy-4-((1R,2R)-2-(trifluoromethyl)cyclopropyl)phenyl)-2-oxo-N-(pyridazin-3-yl)-1,2-dihydroquinoline-6-sulfonamide], in data set [1] (setting [3]), the “CYP3A4 mRNA Induct Hu 10 uM POC” value is 46.59%. For the same compound, the IC50 in data set [2] is 19 nM.

With `COc1cc([C@@H]2C[C@H]2C(F)(F)F)c(C)cc1-n1c(=O)ccc2cc(S(=O)(=O)Nc3ccon3)ccc21` (atropisomer, axis not shown; (P)) [Example 26, (P)-N-(isoxazol-3-yl)-1-(2-methoxy-5-methyl-4-((1R,2R)-2-(trifluoromethyl)cyclopropyl)phenyl)-2-oxo-1,2-dihydroquinoline-6-sulfonamide], the “CYP3A4 mRNA Induct Hu 10 uM POC” value in data set [1] (setting [3]) is reported as 35.39%. The IC50 in data set [2] turned out to be 19 nM.

Turning to `COc1cc([C@H]2C[C@H]2C2CC2)c(F)cc1-n1c(=O)ccc2cc(S(=O)(=O)Nc3ccon3)ccc21` (atropisomer, axis not shown; (P)) [Example 30, (P)-1-(4-((1S,2S)-[1,1′-bi(cyclopropan)]-2-yl)-5-fluoro-2-methoxyphenyl)-N-(isoxazol-3-yl)-2-oxo-1,2-dihydroquinoline-6-sulfonamide], in data set [1] (hepatocytes), the “CYP3A4 mRNA Induct Hu 10 uM POC” value is given as 60.34%. Further, in data set [2], the IC50 came out at 26 nM.

Turning to `COc1cc([C@@H]2C[C@H]2COC(F)(F)F)c(F)cc1-n1c(=O)ccc2cc(S(=O)(=O)Nc3ccon3)ccc21` (atropisomer, axis not shown; (P)) [Example 32, (P)-1-(5-fluoro-2-methoxy-4-((1R,2R)-2-((trifluoromethoxy)methyl)cyclopropyl)phenyl)-N-(isoxazol-3-yl)-2-oxo-1,2-dihydroquinoline-6-sulfonamide], the “CYP3A4 mRNA Induct Hu 10 uM POC” value in data set [1] (setting [3]) is on record as 64.54%. Also, the IC50 in data set [2] amounted to 9 nM.

In the case of `COc1cc([C@H]2C[C@@H]2COC(F)(F)F)c(F)cc1-n1c(=O)ccc2cc(S(=O)(=O)Nc3ccon3)ccc21` (atropisomer, axis not shown; (P)) [Example 33, (P)-1-(5-fluoro-2-methoxy-4-((1S,2S)-2-((trifluoromethoxy)methyl)cyclopropyl)phenyl)-N-(isoxazol-3-yl)-2-oxo-1,2-dihydroquinoline-6-sulfonamide], in data set [1] (setting [3]), the “CYP3A4 mRNA Induct Hu 10 uM POC” value is recorded as 139.9%. Moreover, the IC50 in data set [2] was determined as 4 nM.

As to `COc1cc([C@@H]2C[C@H]2C(F)(F)F)c(F)cc1-n1c(=O)ccc2cc(S(=O)(=O)Nc3nncs3)ccc21` (atropisomer, axis not shown; (P)) [Example 40, (P)-1-(5-fluoro-2-methoxy-4-((1R,2R)-2-(trifluoromethyl)cyclopropyl)phenyl)-2-oxo-N-(1,3,4-thiadiazol-2-yl)-1,2-dihydroquinoline-6-sulfonamide], in data set [2], the IC50 was determined as 8 nM.

For `COc1cc([C@@H]2C[C@H]2C(F)(F)F)c(F)cc1-n1c(=O)cc(F)c2cc(S(=O)(=O)Nc3ccon3)ccc21` (atropisomer, axis not shown; (P)) [Example 44, (P)-4-fluoro-1-(5-fluoro-2-methoxy-4-((1R,2R)-2-(trifluoromethyl)cyclopropyl)phenyl)-N-(isoxazol-3-yl)-2-oxo-1,2-dihydroquinoline-6-sulfonamide], in data set [1] (setting [3]), the “CYP3A4 mRNA Induct Hu 10 uM POC” value is listed as 26.89%.

Turning to `COc1cc([C@@H]2C[C@H]2C(F)(F)F)ccc1-n1c(=O)ccc2cc(S(=O)(=O)Nc3ccon3)c(F)cc21` (atropisomer, axis not shown; (P)) [Example 47, (P)-7-fluoro-N-(isoxazol-3-yl)-1-(2-methoxy-4-((1R,2R)-2-(trifluoromethyl)cyclopropyl)phenyl)-2-oxo-1,2-dihydroquinoline-6-sulfonamide], the “CYP3A4 mRNA Induct Hu 10 uM POC” value in data set [1] (setting [3]) is recorded as 14.245%.

`COc1cc([C@H]2C[C@@H]2C(F)(F)F)ccc1-n1c(=O)ccc2cc(S(=O)(=O)Nc3ccon3)c(F)cc21` (atropisomer, axis not shown; (P)) [Example 48, (P)-7-fluoro-N-(isoxazol-3-yl)-1-(2-methoxy-4-((1S,2S)-2-(trifluoromethyl)cyclopropyl)phenyl)-2-oxo-1,2-dihydroquinoline-6-sulfonamide]: the “CYP3A4 mRNA Induct Hu 10 uM POC” value in data set [1] (setting [3]) is 54.02%.

As to `COc1cc([C@H]2C[C@@H]2C(F)(F)F)c(Cl)cc1-n1c(=O)ccc2cc(S(=O)(=O)Nc3cccnn3)ccc21` (single isomer, unassigned) [Example 15], the “CYP3A4 mRNA Induct Hu 10 uM POC” value in data set [1] (setting [3]) came to 69.11%.

In the case of `COc1cc([C@H]2C[C@@H]2C(F)(F)F)c(C)cc1-n1c(=O)ccc2cc(S(=O)(=O)Nc3ccon3)ccc21` (single isomer, unassigned) [Example 27], in data set [1] (setting [3]), the “CYP3A4 mRNA Induct Hu 10 uM POC” value is given as 64.14%.

Turning to `O=c1ccc2cc(S(=O)(=O)Nc3ccon3)ccc2n1-c1cc(F)c([C@H]2C[C@@H]2C(F)(F)F)cc1OC1CC1` (single isomer, unassigned) [Example 41], the “CYP3A4 mRNA Induct Hu 10 uM POC” value in data set [1] (setting [3]) is reported as 13.21%.

Regarding `COc1cc([C@@H]2C[C@H]2C(F)(F)F)c(F)cc1-n1c(=O)ccc2cc(S(=O)(=O)Nc3ccon3)c(F)cc21` (single isomer, unassigned) [Example 45], the “CYP3A4 mRNA Induct Hu 10 uM POC” value in data set [1] (setting [3]) is recorded as 24.57%. For the same compound, the IC50 in data set [2] was determined as 8 nM.

With `COc1cc([C@H]2C[C@@H]2C(F)(F)F)c(F)cc1-n1c(=O)ccc2cc(S(=O)(=O)Nc3ccon3)c(F)cc21` (single isomer, unassigned) [Example 46], the “CYP3A4 mRNA Induct Hu 10 uM POC” value in data set [1] (setting [3]) was 53.03%.

For `COc1cc(C2CC2)c(F)cc1-n1c(=O)ccc2cc(S(=O)(=O)Nc3ccon3)ccc21` [A, 1-(4-cyclopropyl-5-fluoro-2-methoxyphenyl)-N-(isoxazol-3-yl)-2-oxo-1,2-dihydroquinoline-6-sulfonamide, reference compound], the “CYP3A4 mRNA Induct Hu 10 uM POC” value in data set [1] (setting [3]) turned out to be 84.31%.

For the origin of these results see patent US11807634B2, “Cyclopropyl dihydroquinoline sulfonamide compounds” (AMGEN INC., priority 2020, dated 2023).
